Measurements from US4931437A, “8-azaxanthine derivatives, and pharmaceutical compositions containing them” (Malesci Istituto Farmacobiologico S.p.A., priority 1986, dated 1990).
Like-named read-outs stand apart in the source and are kept apart here.

How the values were obtained:
[1] = Acute toxicity (oral LD50); parameters: species or system male Swiss mice; settings: in vivo, mouse, deaths in ten days, Litchfield and Wilcoxon, limits in parentheses, max dose generally 500 mg/Kg, read-out: DL/50 (mouse os)
Procedure: LD50 was calculated according to Litchfield and Wilcoxon method (J. Pharm. Expt. Ther. 96, 99; 1949). The maximum dose administered was generally 500 mg/Kg.

[2] = tested on: heart rate and blood pressure; settings: in vivo, po
Procedure: Fasted (16 h) normotensive male Wistar rats weighing 300-380 g. were used. The animals were prewarmed by means of infrared lamp for 15 min. before recording blood pressure and heart rate with the tale-cuff method (Maffii G. e Coll.--Arch. It. Sci. Farm. 12, 3; 1962). Recording were performed before and 30'-90'--3 h after oral drug administration. […] The % increase in heart rate was plotted against the log dose. […] In table 2 the average value of the indexes was reported.

[3] = tested on: bronchospasm; assay: Antibronchospastic activity (aerosol ovalbumin, sensitized guinea pigs, oral); assay type: in vivo, guinea pig; settings: for Oral antibronchospastic activity (aerosol ovalbumin guinea-pig) A.U.C. 0 → 3h Index: ratio between equieffective doses of theophylline and tested compound, AUC of % inhibition 0-3 h
Procedure: Fasted (16 h) male and female guinea pigs were sensitized by ovalbumin (25 mg/Kg. s.c. and 25 mg/Kg. i.p.) (Herxheimer and Stresemann--Arch. It. Pharmacodyn. Ther. 125.126; 1960). After two weeks, animals were challenged, by an aerosol of 0.5% ovalbumin recording the latency time (T1) of the first bronchospasm. A week later, the test was repeated in the same animals 1-3 hours after drug administration (T2). % of inhibition was determined as [formula] where T1 was control latency time, T2 was latency time after drug administration. […] The area under curve (AUC) expressing the % inhibition plotted toward time (0-3 h) after drug dosing, was calculated.

[4] = Effects on CNS: cardiazole (CZ) induced convulsions; settings: mouse, in vivo, po
Procedure: (§1) Fasted (20 h) male Swiss mice (20 g b.w.) received orally the compounds 1 h before cardiazole (CZ) or chlordiazepoxide (CDO) administration.
CZ was injected i.p. in a fully convulsive dose which produced death in about 10% of animals (60-100 mg/Kg.). Appropriate dose was determined before each experimental session.
(§2) In the untreated animals, CDO 100 mg/Kg i.p. induced sleep lasting 20-30 min. Sleeping time was defined as the time elapsing from the loss to the recovery of the righting reflex. Pretreated animals were observed up to a maximum of 6 h.

[5] = Effects on CNS: sleeping time following chlordiazepoxide (CDO) treatment; settings: mouse, in vivo, po
Procedure: as §1, §2

Structure (SMILES) | LD50 at 240 h [1] [µmol/kg] | Tachycardic effects (rat os) Index [2] | Oral antibronchospastic activity (aerosol ovalbumin guinea-pig) A.U.C. 0 → 3h Index [3] | further results
CCCn1c(=O)c2nn(CCN(C)C)nc2n(CC(C)CC)c1=O (centres unmarked) [MX8272] | 1370 | 0 | 2,1 | –
CCCn1c(=O)c2c(nnn2CCN(CC)CC)n(-c2ccccc2)c1=O [MX8257] | > 1350 | 0 | 1,8 | –
CCCn1c(=O)c2c(nnn2CCN2CCOCC2)n(-c2ccccc2)c1=O [MX82105, 1-n-propyl-3-phenyl-7-(2-morpholinoethyl)-8-azaxanthine] | > 1300 | 0 | 2,4 | –
CCCn1c(=O)c2nn(CCN3CCCCC3)nc2n(-c2ccccc2)c1=O [MX82104] | 1310 | 0 | 2,1 | –
CCCn1c(=O)c2c(nnn2CCN(C)C)n(CC(C)CC)c1=O (centres unmarked) [MX8271] | > 1480 | 0 | 1,9 | –
CCCn1c(=O)c2c(nnn2CCN2CCCCC2)n(-c2ccccc2)c1=O [MX82103] | 910 | 0 | 1,7 | –
CCC(C)Cn1c(=O)[nH]c(=O)c2c1nnn2CCN(CC)CC (centres unmarked) [MX82108] | > 1550 | 0 | 1,3 | –
CCCn1c(=O)c2nn(CCN(CC)CC)nc2n(-c2ccccc2)c1=O [MX8258] | > 1350 | 0 | 1,6 | –
CCCn1c(=O)c2nn(CCN3CCOCC3)nc2n(-c2ccccc2)c1=O [MX82106, 1-n-propyl-3-phenyl-8-(2-morpholinoethyl)-8-azaxanthine] | > 1300 | 0 | 2,9 | –
CCC(C)Cn1c(=O)[nH]c(=O)c2nn(CCN(CC)CC)nc21 (centres unmarked) [MX82109] | > 1550 | 0,3 | 1,1 | –
Cn1c(=O)c2[nH]cnc2n(C)c1=O [THEOPHYLLINE, 1.3-dimethylxanthine, reference compound] | – | – | – | ED50 [4]: 150 µmol/kg; blood pressure effect ([2]; rat): slight hypotension; heart rate effect ([2]; rat): marked dose-dependent tachycardia; dosage producing a 30% increase in heart rate ([2]; rat, 30 min): 0.21 mmol/kg; dosage producing a 30% increase in heart rate ([2]; rat, 90 min): 0.36 mmol/kg; dosage producing a 30% increase in heart rate ([2]; rat, 180 min): 0.57 mmol/kg; ED50 [5]: 75 µmol/kg; ED50 ([3]; Cavia porcellus, po, guinea pig, 0.5% ovalbumin aerosol, read-out: ED50, inhibition of bronchoconstriction): 250 µmol/kg
